Measured values: US10556892B2, “Piperazinyl methanone NAAA inhibitors” (priority 2016, dated 2020)
Values after ≈ are worked out from the molar mass of the structure shown. Where two headings read alike, the source gives them in different places. One block for each compound: values may come before it.

How the values were obtained:
[1] = Aqueous kinetic solubility in PBS pH 7.4; type: physicochemical; details: pH 7.4, aqueous buffer, kinetic from dmso stock; for solubility at 24 h: PBS
[2] = In vitro metabolic stability, mouse liver microsomes; type: in vitro ADME; design: dose or concentration left out as unconfirmed
Method: In vitro metabolic stability. Microsomes stability experiments. In vitro incubation with mouse microsomes (NADPH and UDPG system). […] At time zero, cofactors were added. […] The mixture was kept at 37° C. under shaking. Aliquots (50 mL) were taken at various time points and crashed with 0.15 mL of CH3CN spiked with 500 nM warfarin (internal standard). Reference incubation, with microsomes but without cofactors, was kept at 37° C. and sampled at the end of the time course. After vortexing and centrifugation, 3 mL of supernatant were analyzed by LCMS/MS and detected by multiple reaction monitoring (MRM).

Plasma stability = type: in vitro ADME; design: dose or concentration left out as unconfirmed; details: mouse plasma
h-AC [3] = tested on: h-AC
h-AC [4] = molecular target: h-AC (Homo sapiens (Human), UniProt Q13510); assay: biochemical; details: read-out: h-AC inh (%) 30 μM
[5] = Pharmacokinetics study in mice; type: in vivo, mouse; details: for Kp: brain and plasma
Method: Compounds were administered orally or intravenously to C57B6/J mice at 3 mg/kg and 3 mg/kg dose, respectively. Vehicle was PEG400/Tween80/saline solution at 15/15/70% in volume, respectively. Three animals per dose were used. […] Control animals treated with vehicle were also included in the study. Animals were sacrificed at time-points and blood and brain samples were collected. […] Brain samples were homogenized in RIPA buffer (150 mM NaCl, 1.0% Triton X-100, 0.5% sodium deoxycholate, 0.1% sodium dodecyl sulfate, 50 mM Tris, pH 8.0) and were then split in two aliquots kept at −80° C. until analysis. An aliquot was used for compound brain level evaluations, following the same procedure described below for plasma samples. The second aliquot was kept for protein content evaluation by bicinchoninic acid (BCA) assay. Samples (plasma and brain homogenate) were thawed in an ice bath, then centrifuged for 20 min and an aliquot of each (50 μL) was transferred into a 96-deepwell plate and added with 150 μl of the extraction solution, consisting of cold acetonitrile spiked with 200 nM of a structural analog of the analyte (14), closely eluting with the analyte itself, as internal standard. After agitation (3 min) the plate was centrifuged at 3000×g for 20 min at 4° C. 80 μl of supernatant was then transferred in a 96-well plate and added with 80 μL of H2O. Standard compound was spiked in net solvent (PBS pH 7.4 added with 20% CH3CN) to prepare a calibration curve over the 1 nM-10 μM range. 3 quality controls samples were also prepared spiking the compound in blank mouse plasma to final 20, 200 and 2000 nM concentrations. Calibrators and QCs were crashed with the same extraction solution used for the plasma samples. Dosing solutions, previously diluted 100000 fold in the net solvent, were also included in the samples and tested. […] Column and UPLC-MS system were purchased from Waters Inc. Milford, USA. Flow rate was set 0.5 mL/min. Eluents were A=H2O and B═CH3CN, both added with 0.1% formic acid. […] The time/concentration profiles measured with the above mentioned system were then analyzed using PK Solutions Excel application (Summit Research Service, USA) to derive the pharmacokinetic data (Maximum observed concentration (Cmax); maximum time (Tmax); cumulative area under curve (AUC) for experimental time points; distribution volume (Vd); systemic clearance (Cl)).

[6] = 25 °C, Table 10, read-out: Aq. Kinetic Solubility
[7] = phosphate-buffered saline (PBS), 25 °C, Table 11, read-out: Aq. Kinetic Solubility
[8] = pH 7.4, read-out: m-LM stab. t1/2
[9] = phosphate-buffered saline (PBS) pH 7.4, 25 °C, Table 9, read-out: Aq. Skin
[10] = 3 mg/kg, CD1 mouse, iv 3 mpk, brain
[11] = 3 mg/kg, CD1 mouse, iv 3 mpk, plasma
[12] = C57B6/J, 10 mg/kg, C57 mouse, po 10 mpk, brain
[13] = C57B6/J, 10 mg/kg, C57 mouse, po 10 mpk, plasma
[14] = C57B6/J, 30 mg/kg, C57 mouse, po 30 mpk, brain
[15] = C57B6/J, 30 mg/kg, C57 mouse, po 30 mpk, plasma
[16] = phosphate-buffered saline (PBS), 25 °C, Table 7
[17] = phosphate-buffered saline (PBS), 25 °C, Table 9, read-out: Aq. Skin
[18] = phosphate-buffered saline (PBS), 25 °C, Table 10, read-out: Aq. Kinetic Solubility

Compound: O=C(c1ccccc1S(=O)(=O)CCCO)N1CCN(c2nc3ccc(F)cc3s2)CC1 [CH2CH2CH2OH]
solubility kinetic [1, 6]: 49 µM (≈ 22.7 µg/mL)

Compound: CCS(=O)(=O)c1ccccc1C(=O)N1CCN(c2nc3ccc(F)cc3s2)C[C@@H]1C [Compound 8, (2-ethylsulfonylphenyl)-[(2S)-4-(6-fluoro-1,3-benzothiazol-2-yl)-2-methyl-piperazin-1-yl]methanone]
Cmax [5, 10]: 1610 ng/mL
Tmax [5, 10]: 0.0833 h
half-life [5, 10]: 0.725 h
AUC ([5]; 3 mg/kg, CD1 mouse, iv 3 mpk, brain, read-out: AUC): 867 ng·h/mL
Cmax [5, 11]: 1810 ng/mL
Tmax [5, 11]: 0.0833 h
clearance [5, 11]: 31 mL/min/kg
half-life [5, 11]: 0.893 h
AUC ([5]; 3 mg/kg, CD1 mouse, iv 3 mpk, plasma, read-out: AUC): 1550 ng·h/mL
Vd ([5]; 3 mg/kg, CD1 mouse, iv 3 mpk, plasma, read-out: Vss): 2.4 L/kg
Cmax [5, 12]: 392 ng/mL
Tmax [5, 12]: 0.5 h
half-life [5, 12]: 1.22 h
AUC ([5]; C57B6/J, 10 mg/kg, C57 mouse, po 10 mpk, brain, read-out: AUC): 1340 ng·h/mL
Cmax [5, 13]: 1470 ng/mL
Tmax [5, 13]: 0.5 h
half-life [5, 13]: 1.34 h
AUC ([5]; C57B6/J, 10 mg/kg, C57 mouse, po 10 mpk, plasma, read-out: AUC): 5340 ng·h/mL
Cmax [5, 14]: 2240 ng/mL
Tmax [5, 14]: 0.25 h
half-life [5, 14]: 3.14 h
AUC ([5]; C57B6/J, 30 mg/kg, C57 mouse, po 30 mpk, brain, read-out: AUC): 3230 ng·h/mL
Cmax [5, 15]: 5170 ng/mL
Tmax [5, 15]: 0.25 h
half-life [5, 15]: 1.41 h
AUC ([5]; C57B6/J, 30 mg/kg, C57 mouse, po 30 mpk, plasma, read-out: AUC): 46200 ng·h/mL
Kp ([5]; C57B6/J, 10 mg/kg, C57 mouse, po 10 mpk, read-out: AUCbrain/AUCplasma): 0.251
Kp ([5]; C57B6/J, 30 mg/kg, C57 mouse, po 30 mpk, read-out: AUCbrain/AUCplasma): 0.07
Total AUC (AUCplasma + AUCbrain) ([5]; C57 mouse, po 10 mpk): 6683
% distribution (AUC organ/(AUCplasma + AUCbrain)) ([5]; C57 mouse, po 10 mpk, brain): 20%
% distribution (AUC organ/(AUCplasma + AUCbrain)) ([5]; C57 mouse, po 10 mpk, plasma): 80%
Cl ([5]; C57 mouse, po 10 mpk, plasma): 30.429 mL/min/kg
Vss ([5]; C57 mouse, po 10 mpk, plasma): 3.53 L/kg
Total AUC ([5]; C57 mouse, po 30 mpk): 49447.7
% distribution ([5]; C57 mouse, po 30 mpk, brain): 7%
% distribution ([5]; C57 mouse, po 30 mpk, plasma): 93%
Cl ([5]; C57 mouse, po 30 mpk, plasma): 10.817 mL/min/kg
Vss ([5]; C57 mouse, po 30 mpk, plasma): 1.32 L/kg
Total AUC ([5]; CD1 mouse, iv 3 mpk): 2421.5
% distribution ([5]; CD1 mouse, iv 3 mpk, brain): 36%
% distribution ([5]; CD1 mouse, iv 3 mpk, plasma): 64%
Kp ([5]; 3 mg/kg, CD1 mouse, iv 3 mpk, read-out: AUCbrain/AUCplasma): 0.557

Compound: CCS(=O)(=O)c1ccccc1C(=O)N1CCN(c2nc3ccc(F)cc3s2)C[C@@H]1C [Compound 8]
solubility at 24 h ([1]; phosphate-buffered saline (PBS), 25 °C, Table 5): 165 µM (≈ 73.8 µg/mL)
solubility at 24 h [1, 16]: 139 ± 1 µM (≈ 62.2 µg/mL)
half-life ([2]; pH 7.4, NADPH, read-out: MLM (NADPH) t1/2): > 1 h
half-life (Plasma stability; Table 5, read-out: Plasma t1/2): > 2 h
Kp ([5]; C57B6/J, mouse, 3 mg/kg, mice, oral administration, read-out: brain-to-plasma ratio): 0.25
Tmax ([5]; C57B6/J, mouse, plasma, oral 3 mg/kg, mice): 0.5 h
AUC ([5]; C57B6/J, mouse, plasma, oral 3 mg/kg, mice, read-out: AUCplasma): 988 ng·h/mL
Cmax ([5]; C57B6/J, mouse, oral 3 mg/kg, mice, plasma): 613 ng/mL

Compound: O=C(c1ccccc1S(=O)(=O)C1CCC1)N1CCN(c2nc3ccc(F)cc3s2)CC1 [Compound 12]
half-life [2, 8]: > 1 h
half-life (Plasma stability; read-out: m-plasma stab. t1/2): > 2 h
inhibition at 30 µM (h-AC [4]): -3%

Compound: O=C(c1ccccc1S(=O)(=O)C1COC1)N1CCN(c2nc3ccc(F)cc3s2)CC1 [Compound 13]
half-life [2, 8]: > 1 h
half-life (Plasma stability; read-out: m-plasma stab. t1/2): > 2 h

Compound: CCS(=O)(=O)c1ccccc1C(=O)N1CCN(c2nc3ccc(F)cc3s2)C(C)C1 (stereo not shown) [Compound 16]
inhibition at 30 µM (h-AC [4]): 25%

Compound: O=C(c1ccccc1S(=O)(=O)C1CC1)N1CCN(c2nc3ccc(F)cc3s2)CC1 [Compound 22]
half-life [2, 8]: > 1 h
half-life (Plasma stability; read-out: m-plasma stab. t1/2): > 2 h
inhibition at 30 µM (h-AC [4]): -1%

Compound: CCS(=O)(=O)c1ccccc1C(=O)N1CCN(c2nc3ccc(F)cc3s2)[C@H](C)C1 [Compound 24]
inhibition at 30 µM (h-AC [4]): 1%

Compound: C[C@H]1CN(c2nc3ccc(F)cc3o2)CCN1C(=O)c1ccccc1S(=O)(=O)C1CC1 [Compound 27]
solubility kinetic at 24 h [1, 9]: 124 µM (≈ 55 µg/mL)
half-life (Plasma stability; read-out: m-plasma stab. t1/2): > 2 h
inhibition at 30 µM (h-AC [4]): -12%

Compound: CCS(=O)(=O)c1ccccc1C(=O)N1CCN(c2nc3ccc(F)c(F)c3s2)C[C@@H]1C [Compound 36]
solubility kinetic at 24 h [1, 17]: 1 µM (≈ 0.466 µg/mL)
half-life [2, 8]: > 1 h
half-life (Plasma stability; read-out: m-plasma stab. t1/2): > 2 h

Compound: CCCS(=O)(=O)c1ccccc1C(=O)N1CCN(c2nc3ccc(F)c(F)c3s2)C[C@@H]1C [Compound 37]
solubility kinetic at 24 h [1, 17]: 8 µM (≈ 3.84 µg/mL)
half-life [2, 8]: > 1 h
half-life (Plasma stability; read-out: m-plasma stab. t1/2): > 2 h
inhibition at 30 µM (h-AC [4]): 9%

Compound: C[C@H]1CN(c2nc3ccc(F)c(F)c3s2)CCN1C(=O)c1ccccc1S(=O)(=O)C1CC1 [Compound 38]
solubility kinetic at 24 h [1, 17]: 14 µM (≈ 6.69 µg/mL)
half-life (Plasma stability; read-out: m-plasma stab. t1/2): > 2 h

Compound: CCCS(=O)(=O)c1ccccc1C(=O)N1CCN(c2nc3ccc(F)cc3s2)C[C@@H]1C [Compound 41, [(2S)-4-(6-fluoro-1,3-benzothiazol-2-yl)-2-methyl-piperazin-1-yl]-(2-propylsulfonylphenyl)methanone]
solubility at 24 h [1, 16]: 76 ± 1 µM (≈ 35.1 µg/mL)

Compound: C[C@H]1CN(c2nc3ccc(F)cc3s2)CCN1C(=O)c1ccccc1S(=O)(=O)C1CC1 [Compound 42, (2-cyclopropylsulfonylphenyl)-[(2S)-4-(6-fluoro-1,3-benzothiazol-2-yl)-2-methyl-piperazin-1-yl]methanone]
solubility at 24 h [1, 16]: 115 ± 7 µM (≈ 52.9 µg/mL)

Compound: O=C(c1ccccc1S(=O)(=O)C1CCC1)N1CCN(c2nc3ccc(F)cc3s2)CC1 [c-butyl]
solubility kinetic [1, 6]: 5 µM (≈ 2.3 µg/mL)

Compound: O=C(c1ccccc1S(=O)(=O)C1CCCC1)N1CCN(c2nc3ccc(F)cc3s2)CC1 [c-pentyl]
solubility kinetic [1, 6]: < 1 µM

Compound: O=C(c1ccccc1S(=O)(=O)C1CC1)N1CCN(c2nc3ccc(F)cc3s2)CC1 [c-propyl]
solubility kinetic [1, 6]: 10 µM (≈ 4.46 µg/mL)

Compound: CC(C)S(=O)(=O)c1ccccc1C(=O)N1CCN(c2nc3ccc(F)cc3s2)CC1 [i-Pr]
solubility kinetic at 24 h [1, 18]: < 1 µM

Compound: O=C(c1ccccc1S(=O)(=O)C1COC1)N1CCN(c2nc3ccc(F)cc3s2)CC1 [oxetan-3-yl]
solubility kinetic at 24 h [1, 18]: 22 µM (≈ 10.2 µg/mL)

Continued, in another order:

solubility kinetic [1, 6]: < 1 µM
Compound: CCCCS(=O)(=O)c1ccccc1C(=O)N1CCN(c2nc3ccc(F)cc3s2)CC1 [CH2CH2CH2CH3]

solubility kinetic [1, 6]: < 1 µM
Compound: CCCS(=O)(=O)c1ccccc1C(=O)N1CCN(c2nc3ccc(F)cc3s2)CC1 [CH2CH2CH3]

solubility kinetic at 24 h [1, 7]: 181 µM (≈ 77.8 µg/mL)
Compound: CCS(=O)(=O)c1ccccc1C(=O)N1CCN(c2nc3ccc(C)cc3s2)CC1 [CH3]

solubility kinetic at 24 h [1, 7]: 2 µM (≈ 0.9 µg/mL)
Compound: CCS(=O)(=O)c1ccccc1C(=O)N1CCN(c2nc3ccc(Cl)cc3s2)CC1 [Cl]

half-life [2, 8]: > 1 h
half-life (Plasma stability; read-out: m-plasma stab. t1/2): > 2 h
Compound: CCS(=O)(=O)c1ccccc1C(=O)N1CCN(c2nc3ccc(F)cc3s2)CC1 [Cmpd 1]

solubility kinetic at 24 h [1, 9]: > 250 µM
half-life [2, 8]: 0.45 h
half-life (Plasma stability; read-out: m-plasma stab. t1/2): > 2 h
inhibition at 30 µM (h-AC [4]): 0%
Compound: CCS(=O)(=O)c1ccccc1C(=O)N1CCN(c2nc3ccccc3o2)CC1 [Cmpd 6]
h-AC inh (%) 30 μM (h-AC [3]): 64%

inhibition at 30 µM (h-AC [4]): 4%
Compound: CCS(=O)(=O)c1ccccc1C(=O)N1CCN(c2nc3c(F)cc(F)cc3s2)CC1 [Cmpd 34]
h-AC inh (%) 30 μM (h-AC [3]): 17%

solubility kinetic at 24 h [1, 9]: 7 µM (≈ 3.16 µg/mL)
half-life [2, 8]: > 1 h
half-life (Plasma stability; read-out: m-plasma stab. t1/2): > 2 h
inhibition at 30 µM (h-AC [4]): 0%
Compound: CCS(=O)(=O)c1ccccc1C(=O)N1CCN(c2nc3ccc(F)c(F)c3s2)CC1 [Cmpd 35]
h-AC inh (%) 30 μM (h-AC [3]): 12%

half-life [2, 8]: 0.267 h
half-life (Plasma stability; read-out: m-plasma stab. t1/2): > 2 h
Compound: CCS(=O)(=O)c1ccccc1C(=O)N1CCN(c2nc3c(F)cccc3s2)CC1 [Compound 8]

half-life [2, 8]: 0.267 h
half-life (Plasma stability; read-out: m-plasma stab. t1/2): > 2 h
inhibition at 30 µM (h-AC [4]): -3%
Compound: CCS(=O)(=O)c1ccccc1C(=O)N1CCN(c2nc3cccc(F)c3s2)CC1 [Compound 9]

half-life [2, 8]: > 1 h
half-life (Plasma stability; read-out: m-plasma stab. t1/2): > 2 h
inhibition at 30 µM (h-AC [4]): 2%
Compound: CCCS(=O)(=O)c1ccccc1C(=O)N1CCN(c2nc3ccc(F)cc3s2)CC1 [Compound 11]

solubility kinetic at 24 h [1, 9]: 6 µM (≈ 2.59 µg/mL)
half-life [2, 8]: > 1 h
half-life (Plasma stability; read-out: m-plasma stab. t1/2): > 2 h
inhibition at 30 µM (h-AC [4]): -12%
Compound: CCS(=O)(=O)c1ccccc1C(=O)N1CCN(c2nc3ccc(F)cc3o2)C[C@@H]1C [Compound 26]

solubility kinetic at 24 h [1, 9]: 45 µM (≈ 20 µg/mL)
half-life (Plasma stability; read-out: m-plasma stab. t1/2): > 2 h
inhibition at 30 µM (h-AC [4]): -11%
Compound: CCCS(=O)(=O)c1ccccc1C(=O)N1CCN(c2nc3ccc(F)cc3o2)C[C@@H]1C [Compound 28]

solubility kinetic at 24 h [1, 7]: 196 µM (≈ 81.4 µg/mL)
Compound: CCS(=O)(=O)c1ccccc1C(=O)N1CCN(c2nc3ccccc3s2)CC1 [H]

solubility kinetic at 24 h [1, 7]: 39 µM (≈ 17.4 µg/mL)
Compound: CCS(=O)(=O)c1ccccc1C(=O)N1CCN(c2nc3ccc(OC)cc3s2)CC1 [OMe]
